Patent US7157430B2, “(Substituted)acyl dipeptidyl inhibitors of the ICE/CED-3 family of cysteine proteases” (Idun Pharmaceuticals, Inc., priority 1998, dated 2007)
Like-named read-outs stand apart in the source and are kept apart here.

Tests used:
Format in all cases: biochemical
MCH-3 = target: T1, MCH-3 (Homo sapiens, UniProt P55210); assay: Fluorescence enzyme assay, IC50 determination, Mch3
T1 sequence (P55210 24-198 limits assumed): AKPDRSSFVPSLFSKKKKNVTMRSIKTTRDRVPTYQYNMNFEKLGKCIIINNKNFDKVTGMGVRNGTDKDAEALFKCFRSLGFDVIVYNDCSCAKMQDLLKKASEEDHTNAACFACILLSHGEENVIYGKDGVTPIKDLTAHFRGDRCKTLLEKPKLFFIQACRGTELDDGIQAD
T1 sequence (P55210 207-303 limits assumed): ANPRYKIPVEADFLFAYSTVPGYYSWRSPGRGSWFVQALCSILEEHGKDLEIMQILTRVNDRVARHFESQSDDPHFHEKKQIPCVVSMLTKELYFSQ
Protocol: (§1) Fluorescence enzyme assays detecting the activity of the compounds of Formula 1 utilizing the recombinant ICE and CPP32 enzymes are performed essentially according to Thornberry et al. (Nature, 356:768:774 (1992)) and Nicholson et al. (Nature, 376:37–43 (1995)) respectively, (herein incorporated by reference) in 96 well microtiter plates. The substrate is Acetyl-Tyr-Val-Ala-Asp-amino-4-methylcoumarin (AMC) for the ICE assay and Acetyl-Asp-Glu-Val-Asp-amino-4-methylcoumarin for the CPP32, Mch2, Mch3 and Mch5 assays. Enzyme reactions are run in ICE buffer (25 mM HEPES, 1 mM EDTA, 0.1% CHAPS, 10% sucrose, pH 7.5) containing 2 mM DTT at room temperature in duplicate.
(§2) The enzyme and the compound of Formula I to be assayed are allowed to preincubate in the microtitre plate wells for 30 minutes at room temperature prior to the addition of substrate to initiate the reaction. Fluorescent AMC product formation is monitored for one hour at room temperature by measuring the fluorescence emission at 460 nm using an excitation wavelength of 360 nm. The fluorescence change in duplicate (control) wells are averaged and the mean values are plotted as a function of inhibitor concentration to determine the inhibitor concentration producing 50% inhibition (IC50). The results of this assay are set forth below in Table 1 and in Table 3 (for Table 3, see Examples 11 through 52).
(§3) The reference compound for this assay was Cbz-ValAlaAsp-H and the values are denoted in Table 1 as “Reference”.

mICE = target: T2, mICE (Mus musculus, UniProt P29452); assay: Fluorescence enzyme assay, IC50 determination, ICE
T2 sequence (P29452 123-296 limits assumed): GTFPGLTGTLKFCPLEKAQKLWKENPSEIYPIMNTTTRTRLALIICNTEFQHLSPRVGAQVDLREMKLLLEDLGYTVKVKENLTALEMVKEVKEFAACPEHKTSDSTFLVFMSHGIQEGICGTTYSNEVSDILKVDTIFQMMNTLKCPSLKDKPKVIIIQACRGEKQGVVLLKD
T2 sequence (P29452 315-402 limits assumed): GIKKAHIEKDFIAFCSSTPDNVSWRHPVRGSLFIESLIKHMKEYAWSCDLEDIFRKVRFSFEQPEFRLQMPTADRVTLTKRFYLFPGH
Protocol: as §1, §2, §3

MCH-5 = MCH-5 (Homo sapiens, UniProt Q14790); assay: Fluorescence enzyme assay, IC50 determination, Mch5
MCH-5, sequence (Q14790 217-374 limits assumed, species assumed): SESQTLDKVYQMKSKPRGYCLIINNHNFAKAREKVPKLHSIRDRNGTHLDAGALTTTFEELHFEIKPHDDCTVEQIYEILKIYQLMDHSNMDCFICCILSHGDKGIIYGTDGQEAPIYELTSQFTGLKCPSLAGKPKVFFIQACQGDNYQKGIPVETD
MCH-5, sequence (Q14790 385-479 limits assumed, species assumed): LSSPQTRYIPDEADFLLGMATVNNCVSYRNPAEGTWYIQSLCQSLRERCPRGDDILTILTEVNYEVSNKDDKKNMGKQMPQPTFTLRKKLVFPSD
Protocol: as §1, §2, §3

CPP32 = target: T3, CPP32 (Homo sapiens, UniProt P42574); assay: Fluorescence enzyme assay, IC50 determination, CPP32
T3 sequence (P42574 29-175 limits assumed): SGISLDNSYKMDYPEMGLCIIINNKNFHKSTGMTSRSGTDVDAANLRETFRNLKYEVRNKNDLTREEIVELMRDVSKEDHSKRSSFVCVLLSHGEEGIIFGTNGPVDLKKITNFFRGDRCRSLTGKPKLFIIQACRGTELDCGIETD
T3 sequence (P42574 176-277 limits assumed): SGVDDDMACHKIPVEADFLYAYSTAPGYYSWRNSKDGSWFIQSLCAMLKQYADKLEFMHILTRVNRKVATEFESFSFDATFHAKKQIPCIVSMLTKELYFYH
Protocol: as §1, §2, §3

MCH-2 = target: T4, MCH-2 (Homo sapiens, UniProt P55212); assay: Fluorescence enzyme assay, IC50 determination, Mch2
T4 sequence (P55212 24-179 limits assumed): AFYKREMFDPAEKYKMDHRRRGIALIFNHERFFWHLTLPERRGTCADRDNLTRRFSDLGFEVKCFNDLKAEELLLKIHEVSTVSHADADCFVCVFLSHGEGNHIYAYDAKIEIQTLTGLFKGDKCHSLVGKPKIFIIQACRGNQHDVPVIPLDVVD
T4 sequence (P55212 194-293 limits assumed): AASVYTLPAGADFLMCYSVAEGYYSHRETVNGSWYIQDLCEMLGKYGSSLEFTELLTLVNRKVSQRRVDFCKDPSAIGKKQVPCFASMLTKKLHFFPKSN
Protocol: as §1, §2, §3

[1] = Table 3, method of Preparation 3A, read-out: MCH3 I50
[2] = Table 3, method of Preparation 3A, read-out: mICE I50
[3] = Table 3, method of Preparation 3A, read-out: MCH5 I50
[4] = Table 3, method of Preparation 3A, read-out: CPP32 I50
[5] = Table 3, method of Preparation 3A, read-out: MCH2 I50
[6] = Ac-DEVD-AMC substrate, 30 min preincubation, room temperature, read-out: MCH-3 IC50
[7] = recombinant enzyme, Ac-YVAD-AMC substrate, 30 min preincubation, room temperature, read-out: mICE IC50
[8] = Ac-DEVD-AMC substrate, 30 min preincubation, room temperature, read-out: MCH-5 IC50
[9] = recombinant enzyme, Ac-DEVD-AMC substrate, 30 min preincubation, room temperature, read-out: CPP32 IC50
[10] = Ac-DEVD-AMC substrate, 30 min preincubation, room temperature, read-out: MCH-2 IC50

| SMILES | IC50 (MCH-3; [1]) [nM] | IC50 (mICE; [2]) [nM] | IC50 (MCH-5; [3]) [nM] | IC50 (CPP32; [4]) [nM] | IC50 (MCH-2; [5]) [nM] | IC50 (MCH-3; [6]) [nM] | IC50 (mICE; [7]) [nM] | IC50 (MCH-5; [8]) [nM] | IC50 (CPP32; [9]) [nM] | IC50 (MCH-2; [10]) [nM] |
| --- | --- | --- | --- | --- | --- | --- | --- | --- | --- | --- |
| Cc1ccc2ccccc2c1OCC(=O)N[C@@H](CC(C)C)C(=O)N[C@H](C=O)CC(=O)O [Example 26] | 4160 | 843 | 4140 | 375 | 32400 | – | – | – | – | – |
| O=C[C@H](CC(=O)O)NC(=O)[C@@H]1CSC(c2ccccc2)N1C(=O)COc1cccc2ccccc12 (stereo partly drawn) [Example 179, (3S,2′RS,4′R)-3-[3′-((1-Naphthyloxy)Acetyl)-2′-Phenylthiazolidine-4′-Carbonyl]Amino-4-Oxobutanoic Acid] | – | – | – | – | – | > 50000 | 204 | 1550 | 14000 | 3530 |
| CC(C)C[C@H](NC(=O)COc1ccccc1OCc1ccccc1)C(=O)N[C@H](C=O)CC(=O)O [Example 45] | 2200 | 2400 | 4340 | 222 | 9750 | – | – | – | – | – |
| CC(C)C[C@H](NC(=O)CCOc1ccc2ccccc2c1)C(=O)N[C@H](C=O)CC(=O)O [Example 23] | 9650 | 1320 | 15200 | 910 | 5900 | – | – | – | – | – |
| CC(C)C[C@H](NC(=O)COc1ccccc1-c1ccccc1)C(=O)N[C@H](C=O)CC(=O)O [Example 39] | 2020 | 636 | 1710 | 95 | 717 | – | – | – | – | – |
| CC(C)C[C@H](NC(=O)COc1cccc2cccnc12)C(=O)N[C@H](C=O)CC(=O)O [Example 34] | 1510 | 13700 | 2240 | 147 | 12500 | – | – | – | – | – |
| CC(C)C[C@H](NC(=O)CNc1cccc2ccccc12)C(=O)N[C@H](C=O)CC(=O)O [Example 8, (3S)-3-[N-((1-Naphthylamino)Acetyl)Leucinyl]Amino-4-Oxobutanoic Acid] | – | – | – | – | – | 1320 | 33 | 7.6 | 13 | 37 |
| CC(C)C[C@H](NC(=O)COc1ccccc1)C(=O)N[C@H](C=O)CC(=O)O [Example 38] | > 10000 | > 10000 | > 10000 | 3400 | > 50000 | – | – | – | – | – |
| CC(C)C[C@H](NC(=O)CSc1cccc2ccccc12)C(=O)N[C@H](C=O)CC(=O)O [Example 16] | 1740 | 2750 | 7420 | 195 | 1430 | – | – | – | – | – |
| CC(C)C[C@H](NC(=O)COc1cccc2c1OC(C)(C)C2)C(=O)N[C@H](C=O)CC(=O)O [Example 10, (3S)-3-[N-((2,3-Dihydro-2,2-Dimethyl-Benzofuranyloxy)Acetyl)Leucinyl]Amino-4-Oxobutanoic Acid] | – | – | – | – | – | 2320 | 6340 | 6340 | 241 | 13100 |
| CC(C)[C@H](NC(=O)COc1ccc2ccccc2c1C(=O)O)C(=O)N[C@H](C=O)CC(=O)O [Example 5, (3S)-3-[N-((1′-Carboxy-2′-Naphthyloxy)Acetyl)Valinyl]Amino-4-Oxobutanoic Acid] | – | – | – | – | – | 10900 | 2960 | 733 | 401 | 3610 |
| CC(C)C[C@H](NC(=O)CCSc1ccc2ccccc2c1)C(=O)N[C@H](C=O)CC(=O)O [Example 25] | 5890 | 611 | 15000 | 837 | 1620 | – | – | – | – | – |
| CC(C)C[C@H](NC(=O)COc1nccc2ccccc12)C(=O)N[C@H](C=O)CC(=O)O [Example 30] | 34700 | 44200 | > 50000 | 1570 | > 50000 | – | – | – | – | – |
